Measurements taken from patent US8008077B2, “Photochemical internalization for delivery of molecules into the cytosol” (priority 2000, dated 2011).

Tests used:
HCT 116 cells = test: Gelonin toxicity after photochemical treatment, protein synthesis by [3H]-leucine incorporation, HCT 116 cells; format: cell-based, human; details: 1 μg/ml gelonin 18 h
Method: (§1) For the treatment with gelonin 25×10^3 cells per well were seeded out into 24-well plates (Nunc, Denmark). The next day 20 μg/ml AlPcS2a was added, and the cells were incubated for 18 h at 37° C. All the procedures after AlPcS2a addition were carried out in subdued light. For the “light before” strategy, the cells were washed from AlPcS2a and incubated in AlPcS2a-free medium for 4 h. Then the cells were exposed to light (as indicated in the figures) before the treatment with 1 μg/ml gelonin for 18 h. For the “light after” strategy the cells were co-incubated with 20 μg/ml AlPcS2a and 1 μg/ml gelonin for 18 h, and washed before exposure to light as indicated in the figure.
(§2) Non-illuminated cells were treated in a similar way except for illumination. The treated cells were washed once with culture medium and after addition of fresh medium incubated at 37° C. before further analysis. Inhibition of protein synthesis was assayed by [^3H]-leucine incorporation into protein 24 h after light exposure. Illumination was performed from a bench with four light tubes (Philips TL 20W/09) and a long pass filter with a cut off at 550-600 nm. The light intensity reaching the cells was 13.5 W/m^2.

[1] = system: WiDr human adenocarcinoma; test: PCI with gelonin for treatment of tumours in a mouse in vivo model; parameters: species or system Balb/c (nu/nu) mice; details: for effect on tumour cure, in words: gelonin alone; for % TUMOUR-FREE MICE 30 DAYS AFTER ILLUMINATION / FRACTION TUMOUR-FREE MICE 30 DAYS AFTER ILLUMINATION: AlPcS2a 10 mg/kg i.p., gelonin 50 μg intratumorally where given
Method: Water and food was given ad libitum. All procedures involving mice were carried out in agreement with the protocols approved by the animal care committee at the Norwegian Radium Hospital, under control by the National Ethical Committee's guidelines on animal welfare. The mice were on average 20-25 g (5-8 weeks old) at the start of the experiments, and we used at least 5 mice per experiment group. The WiDr human adenocarcinoma used in the present study, was propagated by serial transplantation into the Balb/c (nu/nu) mice. The tumours were minced to homogeneity by a scalpel and 20 μl of the solution injected subcutaneously on the right hip of each mouse. The tumour size was measured two or three times per week by measuring two perpendicular diameters. Tumour volume was calculated using the following formula: V=(W^2×L)/2 where W is the width and L the length diameters of the tumours measured. Treatment
A stock solution of AlPcS2a was diluted to 1.25 mg/ml in PBS and injected intraperitoneally to a final concentration of 10 mg/kg when the tumours had reached a volume of approximately 100 mm^3. 48 h after the injection of AlPcS2a the tumours were exposed for 16 min to red light (see below). Immediately after light exposure gelonin (50 μg total amount in a 2 mg/ml solution, i.e. 25 μl) was injected intratumorally. The mice were kept in the dark for 1 week after the injection of AlPcS2a.
The tumours were illuminated with a 150 W halogen lamp (Xenophot HLX64640) filtered with a 580 nm long pass and a 700 nm short pass filter emitting 150 mW/cm^2. The animals were covered with aluminium foil except above the tumour area where a hole in the foil with a diameter 2 mm larger than the tumour diameter had been made. The tumours were exposed to 145 J/cm^2 of light. Tumour volumes were measured two or three times per week as described above. Mice were killed when the tumours reach a diameter of approximately 20 mm. The fraction of tumour-free mice 30 days after illumination was scored (Table 1), and the mean tumour volume in each treatment group was recorded (FIG. 25).

THX cells = test: Gelonin toxicity after photochemical treatment, protein synthesis by [3H]-leucine incorporation, THX cells; format: cell-based, human
Method: THX cells were incubated with 20 μg/ml AlPcS2a for 18 hours followed by 4 hours in sensitizer-free medium before exposure to light. The cells were either co-treated with AlPcS2a and 1 μg/ml gelonin, or gelonin (1 μg/ml) was added to the medium immediately after light exposure for 18 hours after which it was removed from the medium as indicated on FIG. 3. Protein synthesis was measured 24 hours after light exposure.
as §1, §2

V-79 cells = test: PCI cell killing by bleomycin, cell survival by MTT assay; format: cell-based, Chinese hamster; details: light before
Method: The Chinese hamster lung fibroblast cell line V-79 was used in this study.
The cells (75 000 cells/well, 1 ml/well) were seeded into 12-well plates (Costar Corning, N.Y., USA) and allowed to attach for 6 h. To some of the wells 1 ml medium with 0.7 μg/ml TPPS2a was added (see Table 1), and the cells were incubated for 18 h (5% v/v CO2, 37° C.) The cells were washed three times with medium. The cells were then incubated in serum-containing medium for 4 h. The medium was removed, new medium was added and the cells were illuminated by exposure to light from a box containing a bank of four fluorescent tubes (Osram 18W/67) with the highest fluence around 420 nm.
Different doses of bleomycin were immediately added. After 1 or 4 h incubation with bleomycin the cells were washed once with RPMI-medium, 1 ml of medium was added and after 3 days of incubation cell survival was measured by the MTT assay. This method is based on reduction of a water-soluble tetrazolium salt (MTT) to a purple, insoluble formazan product by mitochondrial dehydrogenases present in living, metabolically active cells. […] The solution is transferred to a 96 wells plate which is read by a Multiskan EX microplate reader (Labsystems, Finland) with a 570 nm bandpass filter. Cell survival is calculated as percent of control cells not receiving light treatment.

[2] = with light (145 J/cm^2; "light before" gelonin)

Row | Substance | toxic effect of gelonin in itself without the PCI treatment (HCT 116 cells) | "light before" strategy compared with "light after" method, inhibition of protein synthesis (HCT 116 cells; 20 μg/ml AlPcS2a) | effect on tumour cure, in words ([1]; with additional light treatment, without AlPcS2a (group 4)) | effect on tumour cure, in words ([1]; without light (group 3)) | % TUMOUR-FREE MICE 30 DAYS AFTER ILLUMINATION [1, 2] [%] | FRACTION TUMOUR-FREE MICE 30 DAYS AFTER ILLUMINATION [1, 2] | tumour growth (mean tumour volume) ([1]; without light) | % TUMOUR-FREE MICE 30 DAYS AFTER ILLUMINATION ([1]; without light) [%] | FRACTION TUMOUR-FREE MICE 30 DAYS AFTER ILLUMINATION ([1]; without light) | toxic effect of gelonin in itself without the PCI treatment (THX cells; 1 μg/ml gelonin 18 h) | inhibition of protein synthesis compared with photochemical treatment in the absence of gelonin (THX cells; 1 μg/ml gelonin before or after photochemical treatment (20 μg/ml AlPcS2a + light), 24 h after light) | "light before" strategy compared with "light after" method, inhibition of protein synthesis (THX cells; 20 μg/ml AlPcS2a, 1 μg/ml gelonin 18 h) | inhibition of protein synthesis, "light before" relative to "light after" (THX cells; highest light dose) | light-induced effect on cytotoxicity (cell survival, MTT) (V-79 cells; 100 μM bleomycin, 1 or 4 h, with 0.7 μg/ml TPPS2a) | light-induced effect on cell survival (MTT) (V-79 cells; lowest dose of bleomycin (5 μM, 1 h), with TPPS2a)
1 | Gelonin: plant toxin which efficiently inhibits protein synthesis when it is present in the cytosol of cells | no toxic effect | works better | no effect | no effect | 0 | 0/5 | grew as fast as in animals given a placebo treatment | 0 | 0/8 | no toxic effect | significantly greater inhibition of protein synthesis | works better | about 3 fold |  | 
2 | bleomycin |  |  |  |  |  |  |  |  |  |  |  |  |  | substantial light-induced increase in the cytotoxicity | lack of effect
